Data from the NIST ThermoML archive (doi:10.1021/je900691n).

Assay: xn = mol fraction of the nth substance listed
Conditions: Liquid, Pycnometric method

COC(=O)OC [dimethyl carbonate] + O=C=O
mass density [kg/m3]
Conditions | 323.15 K | 327.95 K
8540 kPa, x1 = 0.1484 | – | 839
8840 kPa, x1 = 0.1484 | – | 844
8920 kPa, x1 = 0.118 | – | 801
9150 kPa, x1 = 0.0242 | – | 333
9160 kPa, x1 = 0.118 | – | 806
9180 kPa, x1 = 0.0242 | – | 337
9250 kPa, x1 = 0.0242 | – | 344
9290 kPa, x1 = 0.1484 | – | 850
9320 kPa, x1 = 0.0242 | – | 352
9320 kPa, x1 = 0.086 | – | 724
9400 kPa, x1 = 0.0242 | – | 359
9470 kPa, x1 = 0.0242 | – | 369
9470 kPa, x1 = 0.118 | – | 812
9540 kPa, x1 = 0.0242 | – | 378
9620 kPa, x1 = 0.0242 | 495 | 387
9690 kPa, x1 = 0.0242 | – | 397
9710 kPa, x1 = 0.0242 | 509 | –
9720 kPa, x1 = 0.086 | – | 740
9740 kPa, x1 = 0.118 | 852 | –
9750 kPa, x1 = 0.0481 | 666 | –
9760 kPa, x1 = 0.086 | 792 | –
9760 kPa, x1 = 0.1484 | 883 | –
9800 kPa, x1 = 0.0242 | 523 | –
9900 kPa, x1 = 0.0242 | 536 | –
9930 kPa, x1 = 0.0242 | 541 | –
10010 kPa, x1 = 0.0481 | 683 | –
10220 kPa, x1 = 0.118 | 859 | –
10280 kPa, x1 = 0.086 | 803 | –
10280 kPa, x1 = 0.1484 | 888 | –
10350 kPa, x1 = 0.0481 | 700 | –
10740 kPa, x1 = 0.086 | 813 | –
10740 kPa, x1 = 0.118 | 866 | –
10740 kPa, x1 = 0.1484 | 893 | –
10780 kPa, x1 = 0.0481 | 719 | –
11230 kPa, x1 = 0.086 | 822 | –
11230 kPa, x1 = 0.118 | 872 | –
11230 kPa, x1 = 0.1484 | 897 | –
11360 kPa, x1 = 0.0481 | 739 | –
11670 kPa, x1 = 0.086 | 829 | –
11750 kPa, x1 = 0.118 | 878 | –
11760 kPa, x1 = 0.1484 | 901 | –
11870 kPa, x1 = 0.0481 | 754 | –
12240 kPa, x1 = 0.1484 | 905 | –
12270 kPa, x1 = 0.118 | 883 | –
12310 kPa, x1 = 0.086 | 839 | –
12390 kPa, x1 = 0.0481 | 768 | –
12740 kPa, x1 = 0.086 | 844 | –
12750 kPa, x1 = 0.118 | 888 | –
12770 kPa, x1 = 0.1484 | 910 | –
12920 kPa, x1 = 0.0481 | 780 | –
13190 kPa, x1 = 0.086 | 851 | –
13260 kPa, x1 = 0.1484 | 913 | –
13310 kPa, x1 = 0.118 | 894 | –
13550 kPa, x1 = 0.0481 | 792 | –
13740 kPa, x1 = 0.086 | 857 | –
13760 kPa, x1 = 0.1484 | 918 | –
13830 kPa, x1 = 0.118 | 898 | –
14230 kPa, x1 = 0.086 | 863 | –
14270 kPa, x1 = 0.118 | 902 | –
14330 kPa, x1 = 0.1484 | 922 | –
14730 kPa, x1 = 0.086 | 868 | –
14750 kPa, x1 = 0.118 | 907 | –
14820 kPa, x1 = 0.1484 | 925 | –
15220 kPa, x1 = 0.086 | 873 | –
15250 kPa, x1 = 0.118 | 911 | –
15510 kPa, x1 = 0.1484 | 930 | –
15660 kPa, x1 = 0.086 | 878 | –
15740 kPa, x1 = 0.118 | 914 | –
16130 kPa, x1 = 0.086 | 883 | –
16420 kPa, x1 = 0.1484 | 936 | –
16430 kPa, x1 = 0.118 | 920 | –
